# Results reported in article PMC7993833, “EDP-938, a novel nucleoprotein inhibitor of respiratory syncytial virus, demonstrates potent antiviral activities in vitro and in a non-human primate model” (PLoS Pathogens, 2021).
# Key:
# RSV-A2 [1] = assay: CPE assay, RSV-A2 in HEp-2 cells; type: cell-based; conditions: human respiratory syncytial virus
# Protocol: (§1) HEp-2, Vero, and BHK were seeded at 8,000 cells per well (cpw) in growth medium (Dulbecco’s Modified Eagle Medium (DMEM) with 1% GlutaMAX, 1% Penicillin/Streptomycin (P/S), 1% Non-Essential Amino Acids (NEAA), 10% Fetal Bovine Serum (FBS)) or (Minimum Essential Medium (MEM) with 10% FBS, 1% NEAA, 1% P/S) or (Eagle’s Minimum Essential Medium with L-Glutamine, with 10% FBS, 1% P/S) respectively. A549 seeded at 3,000 cpw in F-12K Kaighn’s Modification nutrient mixture with 10% FBS, 1% NEAA, 1% P/S. Cells seeded at time of infection in 96-well plates, final well volume 100μL. Compounds suspended in DMSO, serially diluted and added to wells at 0.5% final DMSO concentration. Viral stocks stabilized with 25% sucrose, previously titered using plaque assay, were added at desired MOI. Sucrose added to cells-only control wells to match percent added with virus. Unless otherwise noted, RSV-A strains were tested at 0.1 MOI and incubated for 5 days in a 37°C, 5% CO2 humidified incubator, and RSV-B at 0.5 MOI for 6 days. Cytopathic effect (CPE) determined using ATPlite (Perkin Elmer) measured with Envision luminometer. For RT-qPCR, RNA was extracted from whole well using Ambion RNAqueous-96 Automated Kit, and RT-qPCR run using Applied Biosystems TaqMan RNA-to-CT 1-Step Kit. […] All EC50s were calculated using the XLFit four-parameter logistic model 200 in Microsoft Excel.
# RSV-A2 [2] = assay: RT-qPCR assay, RSV-A2 in HEp-2 cells; type: cell-based; conditions: human respiratory syncytial virus
# Protocol: as §1
# RSV-A Long = assay: RT-qPCR assay, RSV-A Long in primary neonatal lamb bronchial epithelial cells; type: cell-based; conditions: human respiratory syncytial virus, Epithelial cell
# HEK-293 cells = assay: Cytotoxicity (ATPlite) in HEK-293 cells; type: cell-based, human; conditions: at up to 50 μM, 3 days
# Protocol: (§2) HEp-2, A549, and CHO cells were seeded at 3,000 cpw in their respective growth medium. CHO growth medium used was RPMI medium 1640 with 10% FBS, 1% P/S, 1% GlutaMAX. HEK-293 cells seeded at 10,000 cpw in DMEM growth medium. Undifferentiated HBECs were seeded in collagen-coated 96-well plates at 7,500 cpw in appropriate growth medium. Compound added and incubated for 3 days (4 days for HBECs) as described above. Plates read with ATPlite and CC50 calculated as EC50s as described above. SI = CC50/EC50 within a cell line.
# HBEC = assay: Cytotoxicity (ATPlite) in primary HBECs; type: cell-based, human
# Protocol: as §2
# [3] = Plasma drug exposure in African Green monkey study; type: in vivo, African Green monkeys (Chlorocebus); conditions: both sexes, plasma, 100 mg/kg BID oral, read-out: mean plasma Ctrough
# From the text: The African green monkey model was selected for EDP-938 in vivo studies for its higher level of viral replication versus cotton rats and BALB/c mice. […] In this previous trial, patients who achieved RSV-604 levels in excess of the EC90 experienced a 2.31 log reduction in viral load. […] The lack of antiviral activity observed with RSV-604 could be a function of relatively poor potency compared to EDP-938 (Fig 1) and/or insufficient tissue exposure. While in this study the animals were not sacrificed and thus the drug level in the lung could not be determined, plasma samples were taken at 12h after the last dose (Ctrough) to confirm drug exposure. […] It is reasonable to project that given the same dose or exposure EDP-938 should perform better than RSV-604 in RSV infected patients as well.
# A study of EDP-938 and RSV-604 in the African Green monkey (AGM) animal model was performed by BIOQUAL, Inc (Rockville, Maryland). Methods were similar to those run in a study by Ispas et al.. Six (6) male and 6 female AGMs (Chlorocebus) of 4–5 kg were purchased from PrimGen (Hines, Illinois). Each animal was challenged with 2 x 10^5 PFU of RSV A2 viral inoculum (Virapur, San Diego, CA). Four animals (2 per sex) in each group were treated with EDP-938, RSV-604, or vehicle control (0.5% w/v methylcellulose). […]
# [4] = tested on: recombinant RSV A2-line19F, N protein mutants; assay: microbe, parasite or virus in culture; conditions: human respiratory syncytial virus
smiles,measurement,setting,value
O=C1Nc2ccccc2C(c2ccccc2)=N[C@@H]1Nc1nnc(-c2ncc(C(F)(F)F)cc2N2CCOCC2)o1 [EDP-938],EC50,RSV-A2 [1],28 ± 4 nM
same,EC90,RSV-A2 [1],40 ± 3 nM
same,EC50,RSV-A2 [2],59 ± 18 nM
same,EC90,RSV-A2 [2],70 ± 30 nM
same,EC50,"RSV-A Long; 144 h, RSV-A Long MOI 0.1, 6 days",> 800 nM
same,EC90,RSV-A Long; RSV-A Long,> 800 nM
same,cytotoxicity,HEK-293 cells,no significant cytotoxicity
same,selectivity index,"HBEC; HBEC cells, SI = CC50/EC50 within a cell line","> 2,380"
same,cytotoxicity,"HBEC; HBEC, at up to 50 μM, 4 days",no significant cytotoxicity
same,concentration at 12 h after the last dose,[3],1480 nM
same,EC50,"[4]; HEp-2, recombinant RSV N K107N",52 ± 6 nM
same,EC50,"[4]; HEp-2, recombinant RSV N K136R",125 ± 20 nM
same,EC50,"[4]; HEp-2, recombinant RSV N L139I",326 ± 83 nM
same,EC50,"[4]; HEp-2, recombinant RSV N M109I",70 ± 26 nM
same,EC50,"[4]; HEp-2, recombinant RSV N M109K",1220 nM
same,EC50,"[4]; HEp-2, recombinant RSV N M109K mutant",~1200 nM
same,EC50,"[4]; HEp-2, recombinant RSV N M109T",244 ± 61 nM
same,EC50,"[4]; HEp-2, recombinant RSV N N105D",60 ± 44 nM
same,EC50,"[4]; HEp-2, recombinant RSV N S134T",99 ± 26 nM
same,EC50,"[4]; HEp-2, recombinant RSV N V90A",46 ± 29 nM
same,EC50,"[4]; HEp-2, recombinant RSV Wild-type (WT), HEp2",45 ± 21 nM
